Values quoted from earlier work, collected in US6419963B1, “Composition and method for the treatment of diaper rash using natural products” (priority 2001, dated 2002).

Tests used:
ethanol-induced ulcers = conditions: rats

Row | Molecule | ethanol-induced ulcers (ethanol-induced ulcers) | solubility in water
1 | CN/C(=N/CCSCc1nc[nH]c1C)NC#N [cimetidine] | not affected | 
2 | [O]=[Zn] [Zinc oxide] |  | almost totally insoluble
3 | Zinc glycerolate |  | insoluble
